In ChEMBL document CHEMBL4483862, “Open-source discovery of chemical leads for next-generation chemoprotective antimalarials” (2018):

Test system: Plasmodium berghei
Test: Luciferase/luciferin-expressing antifolate-resistant parasites were used to infect a culture of HepG2 cells that were pre-incubated with compounds. Infected hepatocytes emit light due to the luciferase reaction. Assay results are presented as the percent inhibition of light emission compared to control. […]
Format: functional
Conditions: sporozoite; for IC90: read-out: LUCIFERASE INFECTION ASSAY - IC90

Row | SMILES | IC90 | other results
1 | C=CCn1c(C)cc(C(=O)CSc2nc3ccccc3o2)c1C | 0.129 µM | IC50 (HEPG2TOX_HILL_SLOPE 2.02, HEPG2TOX_R_SQUARED 0.572, PBLUC_HILL_SLOPE 43.7, PBLUC_R_SQUARED 0.493, read-out: LUCIFERASE INFECTION ASSAY - IC50): 0.123 µM
2 | Nc1nccc(/C=C/c2c(F)cccc2Cl)n1 | > 13.2 µM | IC50 (HEPG2TOX_HILL_SLOPE 2, HEPG2TOX_R_SQUARED 0.972, PBLUC_HILL_SLOPE 2.11, PBLUC_R_SQUARED 0.172, read-out: LUCIFERASE INFECTION ASSAY - IC50): 8.94 µM
3 | COc1ccc2[nH]c3c(NCCC4=CCCCC4)ncnc3c2c1 | 5.19 µM | IC50 (HEPG2TOX_HILL_SLOPE 2.01, HEPG2TOX_R_SQUARED 0.344, PBLUC_HILL_SLOPE 1.69, PBLUC_R_SQUARED 0.738, read-out: LUCIFERASE INFECTION ASSAY - IC50): 1.42 µM
4 | Cc1ccc(C)c(C(=O)C(C)Sc2nnc(-c3cccc(Br)c3)o2)c1 (configuration not stated) | 9.4 µM | IC50 (HEPG2TOX_HILL_SLOPE 2.02, HEPG2TOX_R_SQUARED 0.871, PBLUC_HILL_SLOPE 4.17, 0.287, PBLUC_R_SQUARED 0.527, 0.262, read-out: LUCIFERASE INFECTION ASSAY - IC50): 4.21 µM
5 | O=C(Nc1cccc(F)c1)Nc1ccc2nc(Cc3ccccc3)nn2c1 | 1.35 µM | IC50 (HEPG2TOX_HILL_SLOPE 1.95, HEPG2TOX_R_SQUARED 0.988, PBLUC_HILL_SLOPE 12.2, PBLUC_R_SQUARED 0.455, read-out: LUCIFERASE INFECTION ASSAY - IC50): 1.12 µM
6 | Cc1ccc(C(=O)COC(=O)Cc2n[nH]c(=O)c3ccccc23)s1 | 9 µM | IC50 (HEPG2TOX_HILL_SLOPE 1.97, HEPG2TOX_R_SQUARED 0.94, PBLUC_HILL_SLOPE 2.28, PBLUC_R_SQUARED 0.564, read-out: LUCIFERASE INFECTION ASSAY - IC50): 3.44 µM
7 | Cc1cccc(C(=O)Nc2nc3ccccn3c2C(=O)NC2CCCCC2)c1 | 2.91 µM | IC50 (HEPG2TOX_HILL_SLOPE 2.01, HEPG2TOX_R_SQUARED 0.621, PBLUC_HILL_SLOPE 5.25, PBLUC_R_SQUARED 0.58, read-out: LUCIFERASE INFECTION ASSAY - IC50): 1.91 µM
8 | COc1ccc(-c2nnc(NC(=O)c3ccc(C)c(S(=O)(=O)N4CCCCC4)c3)[nH]2)cc1 | 6.51 µM | IC50 (HEPG2TOX_HILL_SLOPE 2.01, HEPG2TOX_R_SQUARED 0.893, PBLUC_HILL_SLOPE 2.99, PBLUC_R_SQUARED 0.681, read-out: LUCIFERASE INFECTION ASSAY - IC50): 3.12 µM
9 | COc1ccc(OC)c(CCNc2nc3cnc(-c4ccc(OC)nc4)cc3n2C)c1 | 2.85 µM | IC50 (HEPG2TOX_HILL_SLOPE 1.95, HEPG2TOX_R_SQUARED 0.873, PBLUC_HILL_SLOPE 2.34, PBLUC_R_SQUARED 0.799, read-out: LUCIFERASE INFECTION ASSAY - IC50): 1.11 µM
10 | O=S(=O)(c1ccc2oc(Nc3ccc(-c4nc5ccccc5[nH]4)cc3)nc2c1)N1CCOCC1 | 3.62 µM | IC50 (HEPG2TOX_HILL_SLOPE 1.96, HEPG2TOX_R_SQUARED 0.85, PBLUC_HILL_SLOPE 1.98, 8.82, PBLUC_R_SQUARED 0.398, 0.470, read-out: LUCIFERASE INFECTION ASSAY - IC50): 1.54 µM
11 | CCOc1cccc(-c2cn3c(-c4ccc5ncccc5c4)cnc3cn2)c1 | 0.0959 µM | IC50 (HEPG2TOX_HILL_SLOPE 1.97, HEPG2TOX_R_SQUARED 0.663, PBLUC_HILL_SLOPE 2.12, PBLUC_R_SQUARED 0.862, read-out: LUCIFERASE INFECTION ASSAY - IC50): 0.0341 µM
12 | O=C(NCc1ccc(-c2cccs2)s1)c1ccc([N+](=O)[O-])o1 | > 9.87 µM | IC50 (HEPG2TOX_HILL_SLOPE 1.96, HEPG2TOX_R_SQUARED 0.945, PBLUC_HILL_SLOPE 1.03, PBLUC_R_SQUARED 0.326, read-out: LUCIFERASE INFECTION ASSAY - IC50): > 9.87 µM
13 | C=CCN(C(=O)CCc1ccc(S(=O)(=O)N2CCCCCC2)cc1)c1nc2c(s1)CCCC2 | > 10 µM | IC50 (HEPG2TOX_HILL_SLOPE 1.95, HEPG2TOX_R_SQUARED 0.844, PBLUC_HILL_SLOPE 2.62, PBLUC_R_SQUARED 0.304, read-out: LUCIFERASE INFECTION ASSAY - IC50): 8.2 µM
14 | O=S(=O)(c1ccccc1NCc1ccnc(N2CCCC2)c1)C(F)(F)F | > 10 µM | IC50 (HEPG2TOX_HILL_SLOPE 1.99, HEPG2TOX_R_SQUARED 0.873, PBLUC_HILL_SLOPE 3.99, PBLUC_R_SQUARED 0.0495, read-out: LUCIFERASE INFECTION ASSAY - IC50): 6.48 µM
15 | Cc1cn2c(CNCCc3ccc(N4CCCCC4)cc3)c(C)nc2s1 | 0.606 µM | IC50 (HEPG2TOX_HILL_SLOPE 1.99, HEPG2TOX_R_SQUARED 0.618, PBLUC_HILL_SLOPE 85.2, PBLUC_R_SQUARED 0.531, read-out: LUCIFERASE INFECTION ASSAY - IC50): 0.591 µM
16 | COc1ccc(NS(=O)(=O)c2cccc(C(=O)Nc3ncc(C)s3)c2)cc1Br | 4.59 µM | IC50 (HEPG2TOX_HILL_SLOPE 1.95, HEPG2TOX_R_SQUARED 0.754, PBLUC_HILL_SLOPE 9.08, 8.50, PBLUC_R_SQUARED 0.373, 0.408, read-out: LUCIFERASE INFECTION ASSAY - IC50): 5.79 µM

Row | SMILES | IC90 | other results
17 | CC(C)NC(=O)c1c(NC(=O)c2ccc(C#N)cc2)nc2ccccn12 | > 9.5 µM | IC50 (HEPG2TOX_HILL_SLOPE 1.96, HEPG2TOX_R_SQUARED 0.946, PBLUC_HILL_SLOPE 9.83, PBLUC_R_SQUARED 0.197, read-out: LUCIFERASE INFECTION ASSAY - IC50): 8.07 µM
18 | Cc1ccccc1-c1noc(CN(C2CCCc3ccccc32)S(C)(=O)=O)n1 (configuration not stated) | > 8.3 µM | IC50 (HEPG2TOX_HILL_SLOPE 2, HEPG2TOX_R_SQUARED 0.927, PBLUC_HILL_SLOPE 1.37, PBLUC_R_SQUARED 0.678, read-out: LUCIFERASE INFECTION ASSAY - IC50): 1.93 µM
19 | COc1ccc(-c2cnc3c(Nc4cccc(OC(F)(F)C(F)F)c4)nccn23)cc1 | 2.67 µM | IC50 (HEPG2TOX_HILL_SLOPE 1.95, HEPG2TOX_R_SQUARED 0.977, PBLUC_HILL_SLOPE 27.6, PBLUC_R_SQUARED 0.693, read-out: LUCIFERASE INFECTION ASSAY - IC50): 2.47 µM
20 | Cc1nc(NC(=O)CCc2c[nH]c3ccccc23)sc1-c1ccccn1 | 3.51 µM | IC50 (HEPG2TOX_HILL_SLOPE 2, HEPG2TOX_R_SQUARED 0.799, PBLUC_HILL_SLOPE 14.5, PBLUC_R_SQUARED 0.715, read-out: LUCIFERASE INFECTION ASSAY - IC50): 3.02 µM
21 | N#Cc1ccc(OCc2nc3ccccc3n2C(F)F)cc1 | 4.42 µM | IC50 (HEPG2TOX_HILL_SLOPE 1.97, HEPG2TOX_R_SQUARED 0.844, PBLUC_HILL_SLOPE 169, PBLUC_R_SQUARED 0.414, read-out: LUCIFERASE INFECTION ASSAY - IC50): 4.36 µM
22 | CC(C)(C)c1ccc(OCc2ccc(C(=O)N3CCN(CC(=O)NC4CC4)CC3)cc2)cc1 | > 10 µM | IC50 (HEPG2TOX_HILL_SLOPE 1.95, HEPG2TOX_R_SQUARED 0.886, PBLUC_HILL_SLOPE 11.8, PBLUC_R_SQUARED 0.642, read-out: LUCIFERASE INFECTION ASSAY - IC50): 8.43 µM
23 | Cc1cc(C(=O)OCc2ccc(-n3nc(C)cc3C)cc2)c2ccccc2n1 | 4.21 µM | IC50 (HEPG2TOX_HILL_SLOPE 1.96, HEPG2TOX_R_SQUARED 0.0908, PBLUC_HILL_SLOPE 15.9, PBLUC_R_SQUARED 0.28, read-out: LUCIFERASE INFECTION ASSAY - IC50): 3.66 µM
24 | CCOc1ccc(C(=O)NNC(=O)c2cc(Cl)ccc2O)cc1 | > 10 µM | IC50 (HEPG2TOX_HILL_SLOPE 1.98, HEPG2TOX_R_SQUARED 0.918, PBLUC_HILL_SLOPE 3.04, PBLUC_R_SQUARED 0.138, read-out: LUCIFERASE INFECTION ASSAY - IC50): 7.76 µM
25 | Cc1cccc(Nc2ncc(C(=O)c3cccc(-c4ccncc4)c3)[nH]2)c1 | 2.02 µM | IC50 (HEPG2TOX_HILL_SLOPE 1.98, HEPG2TOX_R_SQUARED 0.759, PBLUC_HILL_SLOPE 4.11, PBLUC_R_SQUARED 0.608, read-out: LUCIFERASE INFECTION ASSAY - IC50): 1.18 µM
26 | O=C(Nc1ccc(-n2cnc3ccccc32)cc1)c1ccc(NC(=O)C2CC2)cc1 | > 10 µM | IC50 (HEPG2TOX_HILL_SLOPE 1.98, HEPG2TOX_R_SQUARED 0.988, PBLUC_HILL_SLOPE 3.86, PBLUC_R_SQUARED 0.781, read-out: LUCIFERASE INFECTION ASSAY - IC50): 6.59 µM
27 | CCCCC(=O)NNC(=O)c1nn(-c2ccccc2)cc1O | 6.61 µM | IC50 (HEPG2TOX_HILL_SLOPE 1.96, 5.56, HEPG2TOX_R_SQUARED 0.938, 0.275, PBLUC_HILL_SLOPE 4.09, 13.0, PBLUC_R_SQUARED 0.105, 0.390, read-out: LUCIFERASE INFECTION ASSAY - IC50): 4.4 µM
28 | N#Cc1cc(-c2ccccc2)nnc1NCc1ccc(Cl)cc1 | > 10.3 µM | IC50 (HEPG2TOX_HILL_SLOPE 2, HEPG2TOX_R_SQUARED 0.904, PBLUC_HILL_SLOPE 2.36, PBLUC_R_SQUARED 0.485, read-out: LUCIFERASE INFECTION ASSAY - IC50): 6.28 µM
29 | OCc1ccc(-c2cnc3ccc(-c4ccc(F)cc4)nn23)cc1 | 5.21 µM | IC50 (HEPG2TOX_HILL_SLOPE 1.97, HEPG2TOX_R_SQUARED 0.914, PBLUC_HILL_SLOPE 1.12, PBLUC_R_SQUARED 0.781, read-out: LUCIFERASE INFECTION ASSAY - IC50): 0.738 µM
30 | Cc1cc(N(C)Cc2ccccc2Br)nc(N)n1 | 2.29 µM | IC50 (HEPG2TOX_HILL_SLOPE 1.99, HEPG2TOX_R_SQUARED 0.929, PBLUC_HILL_SLOPE 3.52, PBLUC_R_SQUARED 0.797, read-out: LUCIFERASE INFECTION ASSAY - IC50): 1.23 µM
31 | COc1ccc(-c2cc3c(cn2)nc(NCCc2cc(OC)ccc2OC)n3C)c(C)c1 | 3.63 µM | IC50 (HEPG2TOX_HILL_SLOPE 1.97, HEPG2TOX_R_SQUARED 0.898, PBLUC_HILL_SLOPE 1.3, PBLUC_R_SQUARED 0.74, read-out: LUCIFERASE INFECTION ASSAY - IC50): 0.669 µM
